The values that follow come from PMC8133782, “Identification of a series of hair-cell MET channel blockers that protect against aminoglycoside-induced ototoxicity” (JCI Insight, 2021).

Holding throughout (format): cell-based
The target of assay [1] is T1, mechano-electrical transducer (MET) channel (pore subunit TMC1) (Mus musculus, UniProt Q8R4P5).
T1 construct: native MET channel in early postnatal CD-1 mouse outer hair cells
T1 sequence (Q8R4P5 1-757): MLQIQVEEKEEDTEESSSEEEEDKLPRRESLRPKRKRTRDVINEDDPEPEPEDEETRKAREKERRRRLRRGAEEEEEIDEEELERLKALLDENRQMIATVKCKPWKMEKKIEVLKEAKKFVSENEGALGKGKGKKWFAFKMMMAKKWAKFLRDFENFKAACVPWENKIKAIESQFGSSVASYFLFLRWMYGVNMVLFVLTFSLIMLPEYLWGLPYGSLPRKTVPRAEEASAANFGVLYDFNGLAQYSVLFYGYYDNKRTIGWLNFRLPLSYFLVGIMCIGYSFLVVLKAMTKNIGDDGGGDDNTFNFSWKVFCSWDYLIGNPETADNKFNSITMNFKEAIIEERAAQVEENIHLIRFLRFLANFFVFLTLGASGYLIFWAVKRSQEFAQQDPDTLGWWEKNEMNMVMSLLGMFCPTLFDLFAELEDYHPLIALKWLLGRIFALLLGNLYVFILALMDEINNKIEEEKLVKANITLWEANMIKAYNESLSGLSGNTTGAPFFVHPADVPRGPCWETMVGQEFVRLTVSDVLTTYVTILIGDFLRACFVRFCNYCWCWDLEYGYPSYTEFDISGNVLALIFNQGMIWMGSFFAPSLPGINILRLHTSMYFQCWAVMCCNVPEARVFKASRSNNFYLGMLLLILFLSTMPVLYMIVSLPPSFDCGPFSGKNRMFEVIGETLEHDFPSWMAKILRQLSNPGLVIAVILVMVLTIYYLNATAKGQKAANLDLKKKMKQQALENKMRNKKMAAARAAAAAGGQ
Put plainly: whole-cell patch clamp of MET currents in OHCs, fractional block at […], partially reversible.

In assay [2] the target is T1, mechano-electrical transducer (MET) channel (pore subunit TMC1). Put plainly: whole-cell patch clamp of MET currents in OHCs, fractional block at […]. (In general: Patch clamp records ionic current or voltage across a cell membrane.)
Assay [3] shares this target. Kind of assay: whole-cell patch clamp of MET currents in OHCs, fractional block at […] (approximately […]).

Take `O=C(Nc1ccc(OC(F)(F)F)cc1)C1CCN(Cc2nc3ccccc3[nH]2)CC1` [UoS-8052]: the inhibition (as a rule, the share of the control response that was lost under treatment) at 50 µM in assay [1] is approximately 70%.

`O=C(CN1CCC(c2nc3ccccc3[nH]2)CC1)Nc1cccc([N+](=O)[O-])c1` [UoS-3607]: in assay [2], the inhibition at 50 µM was approximately 70%.

With `C(=C\c1ccccc1)/CN1CCC(c2nc3ccccc3[nH]2)CC1` [UoS-3606], in assay [3], the inhibition at 50 µM is approximately 80%.
